In US6946472B2, “Polycyclic compounds exhibiting anti-tumor activities” (Hoffman-La Roche Inc., priority 2002, dated 2005):
pIC50: −log10 of the molar value.

What follows are compounds tested on HCT116 cell line (colorectal cancer) (assay: Anti-proliferative activity assay (WST-8)). Settings: Homo sapiens, HCT-116, 96 h; in vitro growth of HCT116, 4 days incubation, WST-8, concentration yielding 50% OD of control growth.
Assay type: cell-based
Method: A single suspension of tumor cells was inoculated to the serially diluted 96-well microtestplate. Then the testplate was incubated in the 5% CO2 ambience at 37° C. for 4 days (2-3×10^3 cells/well). The degree of cell growth in a monolayer was measured by using WST-8 (Dojindo, Japan). IC50 values of the polycyclic compounds directed against tumor cells were calculated as the concentration of drug yielding 50% OD of the control growth.
The anti-tumor activity of polycyclic compounds of the formula [I] against in vitro growth of HCT116 cell line (colorectal cancer) is summarized in Table 1.
`CN(CCCN(C)CCNc1nc2ccccc2c2c1C(=O)c1ccncc1-2)CCNc1nc2ccccc2c2c1C(=O)c1ccncc1-2` [Example 10, 6-{2-[methyl-(3-{methyl-[2-(7-oxo-7H-5,10-diaza-benzo[c]fluoren-6-ylamino)-ethyl]-amino}-propyl)-amino]-ethylamino}-5,10-diaza-benzo[c]fluoren-7-one] was tested, and the pIC50 was 9.52.
For `COc1ccc2c3c(c(NCCN(C)CCCN(C)CCNc4nc5ccccc5c5c4C(=O)c4cnccc4-5)nc2c1)C(=O)c1cnccc1-3` [Example 16, 3-methoxy-6-{2-[methyl-(3-{methyl-[2-(7-oxo-7H-5,9-diaza-benzo[c]fluoren-6-ylamino)-ethyl]-amino}-propyl)-amino]-ethylamino}-5,9-diaza-benzo[c]fluoren-7-one], the pIC50 was 10.10.
For `CN(C)CCNc1nc2cc(O)ccc2c2c1C(=O)c1ccccc1-2` [Reference compound, 6-(2-dimethylamino-ethylamino)-3-hydroxy-7H-indeno[2,1-c]quinolin-7-one, reference compound], the pIC50 was 7.92.
`CN(CCCN(C)CCNc1nc2ccccc2c2c1C(=O)c1cnccc1-2)CCNc1nc2ccccc2c2c1C(=O)c1cnccc1-2` [Example 5, 6-{2-[methyl-(3-{methyl-[2-(7-oxo-7H-5,9-diaza-benzo[c]fluoren-6-ylamino)-ethyl]-amino}-propyl)-amino]-ethylamino}-5,9-diaza-benzo[c]fluoren-7-one] showed a pIC50 of 9.19.
In the case of `CN(CCCN(C)CCNc1nc2cc(Cl)ccc2c2c1C(=O)c1cnccc1-2)CCNc1nc2cc(Cl)ccc2c2c1C(=O)c1cnccc1-2` [Example 6, 3-chloro-6-{2-[(3-{[2-(3-chloro-7-oxo-7H-5,9-diaza-benzo[c]fluoren-6-ylamino)-ethyl]-methyl-amino}-propyl)-methyl-amino]-ethylamino}-5,9-diaza-benzo[c]fluoren-7-one], the pIC50 was 10.70.
For `CN(CCCN(C)CCNc1nc2ccccc2c2c1C(=O)c1ccncc1-2)CCNc1nc2ccccc2c2c1C(=O)c1cnccc1-2` [Example 15, 6-{2-[methyl-(3-{methyl-[2-(7-oxo-7H-5,10-diaza-benzo[c]fluoren-6-ylamino)-ethyl]-amino}-propyl)-amino]-ethylamino}-5,9-diaza-benzo[c]fluoren-7-one], the pIC50 was 9.89.
